{
  "source": "ChEMBL document CHEMBL3822377",
  "about": "“Locking PDK1 in DFG-out conformation through 2-oxo-indole containing molecules: Another tools to fight glioblastoma” (Eur J Med Chem, 2016)",
  "key": {"[1]": {"target": "T1, 3-phosphoinositide-dependent protein kinase 1 (Homo sapiens) (UniProt O15530)", "T1 sequence (whole entry)": "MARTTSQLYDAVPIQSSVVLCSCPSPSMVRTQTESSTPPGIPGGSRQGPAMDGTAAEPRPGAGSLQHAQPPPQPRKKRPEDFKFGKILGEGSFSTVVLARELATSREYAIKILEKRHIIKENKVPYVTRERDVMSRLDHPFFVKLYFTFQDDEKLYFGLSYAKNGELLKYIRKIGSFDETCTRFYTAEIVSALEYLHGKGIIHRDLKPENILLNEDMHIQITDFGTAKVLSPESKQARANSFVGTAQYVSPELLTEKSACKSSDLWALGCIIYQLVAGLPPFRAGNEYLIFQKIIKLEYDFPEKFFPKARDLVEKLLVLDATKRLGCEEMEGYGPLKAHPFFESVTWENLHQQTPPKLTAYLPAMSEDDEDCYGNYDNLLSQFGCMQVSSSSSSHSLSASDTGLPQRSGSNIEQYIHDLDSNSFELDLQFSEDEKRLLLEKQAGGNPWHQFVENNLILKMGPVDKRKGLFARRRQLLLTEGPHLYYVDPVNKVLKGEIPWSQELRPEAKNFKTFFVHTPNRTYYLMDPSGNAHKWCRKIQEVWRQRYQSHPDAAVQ", "assay": "Inhibition of PDK1 (unknown origin) at 10 uM by FRET-based Z-lyte assay"}, "[2]": {"target": "Aurora kinase A (Homo sapiens) (UniProt O14965)", "sequence (O14965 whole entry)": "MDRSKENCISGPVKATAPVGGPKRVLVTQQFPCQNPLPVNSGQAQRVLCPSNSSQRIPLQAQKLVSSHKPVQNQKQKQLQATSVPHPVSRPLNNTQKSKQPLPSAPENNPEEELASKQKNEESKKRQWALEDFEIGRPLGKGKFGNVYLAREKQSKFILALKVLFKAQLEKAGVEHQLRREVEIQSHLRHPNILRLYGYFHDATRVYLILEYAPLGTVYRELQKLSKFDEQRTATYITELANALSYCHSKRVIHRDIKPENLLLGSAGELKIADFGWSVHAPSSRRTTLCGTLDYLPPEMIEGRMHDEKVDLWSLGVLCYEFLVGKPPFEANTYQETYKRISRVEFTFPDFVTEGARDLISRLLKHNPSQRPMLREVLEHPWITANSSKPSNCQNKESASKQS", "assay": "Inhibition of His-tagged full-length recombinant human Aurora A expressed in baculovirus system at 100 nM by Z-lyte assay"}, "[3]": {"target": "Calcium/calmodulin-dependent protein kinase type II subunit alpha (Homo sapiens) (UniProt Q9UQM7)", "sequence (Q9UQM7 whole entry)": "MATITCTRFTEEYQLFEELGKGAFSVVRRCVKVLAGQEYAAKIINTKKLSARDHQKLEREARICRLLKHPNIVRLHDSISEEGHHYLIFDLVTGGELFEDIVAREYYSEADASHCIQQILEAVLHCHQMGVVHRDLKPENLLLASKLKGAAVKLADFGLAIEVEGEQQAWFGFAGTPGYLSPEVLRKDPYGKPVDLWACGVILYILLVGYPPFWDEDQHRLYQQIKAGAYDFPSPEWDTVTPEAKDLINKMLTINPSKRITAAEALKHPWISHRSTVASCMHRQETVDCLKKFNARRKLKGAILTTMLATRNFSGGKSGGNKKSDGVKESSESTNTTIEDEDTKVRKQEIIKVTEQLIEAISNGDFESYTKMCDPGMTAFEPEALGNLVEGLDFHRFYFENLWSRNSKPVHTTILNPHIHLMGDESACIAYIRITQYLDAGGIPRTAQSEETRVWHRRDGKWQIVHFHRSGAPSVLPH", "assay": "Inhibition of His-tagged full-length human CaMKII alpha expressed in baculovirus system at 100 nM by Z-lyte assay"}, "[4]": {"target": "Cyclin-dependent kinase 5/CDK5 activator 1 (Homo sapiens) (UniProt Q00535+Q15078)", "sequence (Q00535 whole entry)": "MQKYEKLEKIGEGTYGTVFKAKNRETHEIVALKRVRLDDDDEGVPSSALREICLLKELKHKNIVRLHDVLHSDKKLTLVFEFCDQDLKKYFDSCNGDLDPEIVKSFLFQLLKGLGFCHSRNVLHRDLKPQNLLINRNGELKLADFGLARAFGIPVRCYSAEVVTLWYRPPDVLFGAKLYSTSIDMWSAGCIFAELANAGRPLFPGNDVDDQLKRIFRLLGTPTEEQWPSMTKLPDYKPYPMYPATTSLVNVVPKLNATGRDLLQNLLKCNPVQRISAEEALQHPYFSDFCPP", "sequence (Q15078 99-307 partner limits assumed)": "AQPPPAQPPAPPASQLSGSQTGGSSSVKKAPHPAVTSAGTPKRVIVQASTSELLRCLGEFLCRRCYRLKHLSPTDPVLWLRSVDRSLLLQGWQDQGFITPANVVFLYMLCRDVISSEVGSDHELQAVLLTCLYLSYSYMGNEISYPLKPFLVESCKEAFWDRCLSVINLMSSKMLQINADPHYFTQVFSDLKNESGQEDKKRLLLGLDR", "assay": "Inhibition of GST/His-tagged full-length human CDK5/p25 expressed in baculovirus system at 100 nM by Z-lyte assay"}, "[5]": {"target": "Casein kinase I isoform gamma-1 (Homo sapiens) (UniProt Q9HCP0)", "sequence (Q9HCP0 whole entry, looked up, canonical isoform)": "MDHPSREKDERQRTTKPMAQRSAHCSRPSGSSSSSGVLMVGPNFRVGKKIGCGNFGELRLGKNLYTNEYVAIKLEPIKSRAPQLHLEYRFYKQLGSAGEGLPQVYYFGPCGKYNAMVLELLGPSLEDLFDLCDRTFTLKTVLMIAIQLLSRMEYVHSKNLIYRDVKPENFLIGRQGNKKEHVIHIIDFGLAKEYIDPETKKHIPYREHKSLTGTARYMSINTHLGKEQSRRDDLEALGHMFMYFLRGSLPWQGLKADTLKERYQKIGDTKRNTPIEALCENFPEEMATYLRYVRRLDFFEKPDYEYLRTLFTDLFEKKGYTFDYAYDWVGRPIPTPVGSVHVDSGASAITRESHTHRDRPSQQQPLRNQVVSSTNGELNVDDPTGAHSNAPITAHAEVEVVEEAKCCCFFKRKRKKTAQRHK", "assay": "Inhibition of GST-tagged full-length human CSNK1G1 expressed in baculovirus system at 100 nM by Z-lyte assay"}, "[6]": {"target": "Tyrosine-protein kinase JAK1 (Homo sapiens) (UniProt P23458)", "sequence (P23458 whole entry)": "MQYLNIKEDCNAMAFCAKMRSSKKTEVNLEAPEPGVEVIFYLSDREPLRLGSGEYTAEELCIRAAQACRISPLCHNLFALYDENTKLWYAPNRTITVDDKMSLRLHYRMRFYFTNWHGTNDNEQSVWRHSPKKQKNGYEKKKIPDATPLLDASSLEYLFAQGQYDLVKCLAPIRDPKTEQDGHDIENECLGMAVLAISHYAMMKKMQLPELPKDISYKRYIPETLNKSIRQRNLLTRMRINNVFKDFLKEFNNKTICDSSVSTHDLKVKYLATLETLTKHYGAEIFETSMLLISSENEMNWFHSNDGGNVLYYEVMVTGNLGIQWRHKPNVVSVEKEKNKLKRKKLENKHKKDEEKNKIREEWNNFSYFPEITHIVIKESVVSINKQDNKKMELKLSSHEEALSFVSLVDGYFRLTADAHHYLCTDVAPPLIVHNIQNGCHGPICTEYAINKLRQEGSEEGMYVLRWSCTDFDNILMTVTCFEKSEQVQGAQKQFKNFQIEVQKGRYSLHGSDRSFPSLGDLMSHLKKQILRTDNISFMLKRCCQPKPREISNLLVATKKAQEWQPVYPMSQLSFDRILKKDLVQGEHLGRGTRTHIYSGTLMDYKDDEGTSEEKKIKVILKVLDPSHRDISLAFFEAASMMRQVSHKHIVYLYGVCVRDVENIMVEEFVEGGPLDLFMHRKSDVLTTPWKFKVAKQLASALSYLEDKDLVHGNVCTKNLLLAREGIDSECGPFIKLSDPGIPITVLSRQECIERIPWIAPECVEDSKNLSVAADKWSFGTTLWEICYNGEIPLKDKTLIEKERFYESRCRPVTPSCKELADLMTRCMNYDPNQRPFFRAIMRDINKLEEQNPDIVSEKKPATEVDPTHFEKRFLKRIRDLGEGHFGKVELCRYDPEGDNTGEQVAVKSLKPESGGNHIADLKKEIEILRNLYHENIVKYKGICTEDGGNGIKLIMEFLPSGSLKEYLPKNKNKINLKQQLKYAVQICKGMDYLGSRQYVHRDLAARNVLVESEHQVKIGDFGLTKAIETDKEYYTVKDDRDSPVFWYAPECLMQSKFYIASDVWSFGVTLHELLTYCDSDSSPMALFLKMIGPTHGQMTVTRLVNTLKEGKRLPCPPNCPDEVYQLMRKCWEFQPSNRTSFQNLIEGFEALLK", "assay": "Inhibition of cytosolic GST-tagged full-length recombinant human JAK1 expressed in baculovirus system at 100 nM by Z-lyte assay"}, "[7]": {"target": "Tyrosine-protein kinase Lck (Homo sapiens) (UniProt P06239)", "sequence (P06239 2-509 limits assumed)": "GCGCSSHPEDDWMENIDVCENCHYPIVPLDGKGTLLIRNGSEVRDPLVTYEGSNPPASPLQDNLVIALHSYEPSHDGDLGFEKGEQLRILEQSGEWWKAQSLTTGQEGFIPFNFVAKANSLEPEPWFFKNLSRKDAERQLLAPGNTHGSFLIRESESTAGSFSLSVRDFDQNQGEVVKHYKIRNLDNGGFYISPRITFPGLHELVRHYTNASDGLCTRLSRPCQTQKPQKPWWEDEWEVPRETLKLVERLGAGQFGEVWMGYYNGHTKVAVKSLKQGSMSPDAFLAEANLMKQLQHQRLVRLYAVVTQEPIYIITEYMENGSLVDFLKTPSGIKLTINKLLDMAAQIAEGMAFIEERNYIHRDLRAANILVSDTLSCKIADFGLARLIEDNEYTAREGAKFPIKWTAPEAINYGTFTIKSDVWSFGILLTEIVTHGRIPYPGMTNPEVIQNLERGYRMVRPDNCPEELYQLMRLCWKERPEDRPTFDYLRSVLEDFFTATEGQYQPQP", "assay": "Inhibition of His-tagged full-length human LCK expressed in baculovirus system at 100 nM by Z-lyte assay"}, "[8]": {"target": "Dual specificity mitogen-activated protein kinase kinase 2 (Homo sapiens) (UniProt P36507)", "assay": "Inhibition of His-tagged full-length recombinant human MAP2K2 expressed in baculovirus system at 100 nM by Z-lyte assay"}, "[9]": {"target": "Mitogen-activated protein kinase 14 (Homo sapiens) (UniProt Q16539)", "sequence (Q16539 whole entry)": "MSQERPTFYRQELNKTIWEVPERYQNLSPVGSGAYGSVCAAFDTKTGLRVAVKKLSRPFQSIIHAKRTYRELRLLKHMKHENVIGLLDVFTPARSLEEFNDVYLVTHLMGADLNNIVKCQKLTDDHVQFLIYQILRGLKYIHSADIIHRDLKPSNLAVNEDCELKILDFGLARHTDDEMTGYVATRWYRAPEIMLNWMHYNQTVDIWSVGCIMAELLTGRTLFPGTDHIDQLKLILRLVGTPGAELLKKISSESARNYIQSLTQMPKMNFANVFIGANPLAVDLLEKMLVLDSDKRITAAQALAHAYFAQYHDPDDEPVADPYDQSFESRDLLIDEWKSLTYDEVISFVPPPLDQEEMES", "assay": "Inhibition of GST-tagged full-length human MAPK14 (direct) expressed in Escherichia coli at 100 nM by Z-lyte assay"}, "[10]": {"target": "MAP kinase-activated protein kinase 2 (Homo sapiens) (UniProt P49137)", "sequence (P49137 whole entry, looked up)": "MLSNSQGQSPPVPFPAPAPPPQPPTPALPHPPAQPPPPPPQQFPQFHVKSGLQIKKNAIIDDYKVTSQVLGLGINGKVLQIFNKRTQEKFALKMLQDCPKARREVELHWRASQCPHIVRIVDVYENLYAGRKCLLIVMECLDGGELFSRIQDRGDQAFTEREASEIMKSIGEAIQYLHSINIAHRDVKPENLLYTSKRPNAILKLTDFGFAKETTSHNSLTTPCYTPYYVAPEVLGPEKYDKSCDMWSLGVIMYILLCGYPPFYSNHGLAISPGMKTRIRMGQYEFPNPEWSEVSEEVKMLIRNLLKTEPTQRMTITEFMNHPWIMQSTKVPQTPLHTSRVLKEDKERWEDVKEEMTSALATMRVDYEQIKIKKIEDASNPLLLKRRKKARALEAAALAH", "assay": "Inhibition of His-tagged full-length recombinant human MAPKAPK2 expressed in Escherichia coli at 100 nM by Z-lyte assay"}, "[11]": {"target": "Protein kinase C epsilon type (Homo sapiens) (UniProt Q02156)", "assay": "Inhibition of full-length recombinant human PRKCE expressed in baculovirus system at 100 nM by Z-lyte assay"}, "[12]": {"tested_on": "RAF proto-oncogene serine/threonine-protein kinase (Homo sapiens), P04049 [Y340D,Y341D]", "sequence (P04049 whole entry Y340D/Y341D)": "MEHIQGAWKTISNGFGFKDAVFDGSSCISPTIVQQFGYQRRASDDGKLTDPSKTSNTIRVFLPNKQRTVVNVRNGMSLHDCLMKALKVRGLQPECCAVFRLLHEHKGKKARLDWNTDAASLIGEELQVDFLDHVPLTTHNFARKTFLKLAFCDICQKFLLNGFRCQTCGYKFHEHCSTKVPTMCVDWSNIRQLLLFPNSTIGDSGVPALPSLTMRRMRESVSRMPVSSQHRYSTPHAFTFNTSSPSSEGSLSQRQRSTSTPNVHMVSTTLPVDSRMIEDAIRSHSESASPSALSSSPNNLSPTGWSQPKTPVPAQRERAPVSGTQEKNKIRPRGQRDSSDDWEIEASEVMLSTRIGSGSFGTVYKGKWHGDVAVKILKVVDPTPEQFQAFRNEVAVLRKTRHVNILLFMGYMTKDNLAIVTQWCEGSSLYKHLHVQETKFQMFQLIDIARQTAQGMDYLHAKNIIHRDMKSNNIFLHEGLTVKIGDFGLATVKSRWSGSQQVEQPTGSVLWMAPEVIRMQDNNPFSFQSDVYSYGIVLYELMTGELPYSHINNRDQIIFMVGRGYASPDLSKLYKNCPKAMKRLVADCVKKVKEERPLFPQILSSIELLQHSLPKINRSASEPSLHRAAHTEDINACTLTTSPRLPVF", "assay": "Inhibition of catalytic GST-tagged human RAF1 Y340D/Y341D double mutant expressed in baculovirus system at 100 nM by Z-lyte assay"}, "U-87 MG": {"tested_on": "U-87 MG", "assay": "Induction of apoptosis in human U87MG cells assessed as early apoptotic cells by measuring phosphatidylserine externalisation at 10 uM after 72 hrs by AnnexinV/FITC staining-based flow cytometry (reference value: 6.39%)", "type": "functional, U-87MG ATCC"}, "U-87MG ATCC": {"tested_on": "U-87MG ATCC", "assay": "Inhibition of AKT phosphorylation at Thr308 residue in human U87MG cells at 10 uM by ELISA relative to control", "type": "cell-based"}, "GSC [13]": {"tested_on": "GSC", "assay": "Antiproliferative activity against human GSC cells at 0.001 to 1 uM after 4 days by MTS assay", "type": "functional, cell-based"}, "[14]": {"assay": "(§1) Antiproliferative activity against human GSC cells after 7 days by MTS assay", "type": "functional, cell-based", "conditions": "168 h"}, "GSC [15]": {"tested_on": "GSC", "assay": "as §1", "type": "functional, cell-based"}, "[16]": {"assay": "Induction of apoptosis in human GSC cells assessed as late apoptotic cells by measuring phosphatidylserine externalisation at 10 uM after 7 days in presence of 7-amino-actinomysin by AnnexinV/FITC staining-based flow cytometry (reference value: 4.14%)", "type": "functional"}, "[17]": {"assay": "Induction of apoptosis in human GSC cells assessed as live cells by measuring phosphatidylserine externalisation at 10 uM after 7 days by AnnexinV/FITC staining-based flow cytometry (reference value: 87.49%)", "type": "functional"}, "[18]": {"assay": "Induction of apoptosis in human GSC cells assessed as dead cells by measuring phosphatidylserine externalisation at 10 uM after 7 days in presence of 7-amino-actinomysin by AnnexinV/FITC staining-based flow cytometry (reference value: 1.68%)", "type": "functional"}, "[19]": {"target": "T1, 3-phosphoinositide-dependent protein kinase 1 (Homo sapiens)", "assay": "Inhibition of PDK1 in human GSC cells assessed as reduction in AKT phosphorylation at Thr308 residue at 10 uM by ELISA relative to control", "type": "cell-based", "conditions": "TDE = time-dependent effect"}, "[20]": {"target": "T1, 3-phosphoinositide-dependent protein kinase 1 (Homo sapiens)", "assay": "Inhibition of PDK1 in human U87MG cells assessed as reduction in AKT phosphorylation at Thr308 residue at 10 uM measured at 120 mins by ELISA relative to control", "type": "cell-based", "conditions": "U-87MG ATCC"}},
  "note": "pIC50: −log10 of the molar value. Active and inactive are the calls of the source. The calls are words filed in the database; no cut-off is given here.",
  "data": [
    {"compound": "O=C(CNC(=O)c1cccn(Cc2ccc(F)c(F)c2)c1=O)Nc1ccc2c(c1)/C(=C/c1cnc[nH]1)C(=O)N2", "values": [
      {"measurement": "inhibition", "setting": "[1]", "value": 87, "unit": "%"},
      {"measurement": "inhibition", "setting": "[2]", "value": 38, "unit": "%"},
      {"measurement": "inhibition", "setting": "[3]", "value": 0, "unit": "%"},
      {"measurement": "inhibition", "setting": "[4]", "value": -8, "unit": "%"},
      {"measurement": "inhibition", "setting": "[5]", "value": 3, "unit": "%"},
      {"measurement": "inhibition", "setting": "[6]", "value": -8, "unit": "%"},
      {"measurement": "inhibition", "setting": "[7]", "value": 9, "unit": "%"},
      {"measurement": "inhibition", "setting": "[8]", "value": 9, "unit": "%"},
      {"measurement": "inhibition", "setting": "[9]", "value": 3, "unit": "%"},
      {"measurement": "inhibition", "setting": "[10]", "value": 0, "unit": "%"},
      {"measurement": "inhibition", "setting": "[11]", "value": 3, "unit": "%"},
      {"measurement": "inhibition", "setting": "[12]", "value": 10, "unit": "%"},
      {"measurement": "Activity", "setting": "U-87 MG", "value": 17.3, "unit": "%"},
      {"measurement": "inhibition", "setting": "U-87MG ATCC", "value": "Dose-dependent effect"},
      {"measurement": "Activity", "setting": "GSC [13]", "value": "Active"},
      {"measurement": "pIC50", "setting": "[14]", "value": 8.47},
      {"measurement": "Activity", "setting": "GSC [15]", "value": "Dose-dependent effect"},
      {"measurement": "Activity", "setting": "[16]", "value": 22.7, "unit": "%"},
      {"measurement": "Activity", "setting": "[17]", "value": 58.6, "unit": "%"},
      {"measurement": "Activity", "setting": "[18]", "value": 2.35, "unit": "%"},
      {"measurement": "inhibition", "setting": "[19]", "value": "tde"},
      {"measurement": "inhibition", "setting": "[20]", "value": 19.6, "unit": "%"}
    ]}
  ]
}
